Experimental data reported in patent US10519154B2, “7-substituted 1-pyridyl-naphthyridine-3-carboxylic acid amides and use thereof” (Bayer Pharma Aktiengesellschaft, priority 2016, dated 2019).

Molecular target: T1, human M2 receptor (Homo sapiens, UniProt P08172)
T1 sequence (P08172 1-466): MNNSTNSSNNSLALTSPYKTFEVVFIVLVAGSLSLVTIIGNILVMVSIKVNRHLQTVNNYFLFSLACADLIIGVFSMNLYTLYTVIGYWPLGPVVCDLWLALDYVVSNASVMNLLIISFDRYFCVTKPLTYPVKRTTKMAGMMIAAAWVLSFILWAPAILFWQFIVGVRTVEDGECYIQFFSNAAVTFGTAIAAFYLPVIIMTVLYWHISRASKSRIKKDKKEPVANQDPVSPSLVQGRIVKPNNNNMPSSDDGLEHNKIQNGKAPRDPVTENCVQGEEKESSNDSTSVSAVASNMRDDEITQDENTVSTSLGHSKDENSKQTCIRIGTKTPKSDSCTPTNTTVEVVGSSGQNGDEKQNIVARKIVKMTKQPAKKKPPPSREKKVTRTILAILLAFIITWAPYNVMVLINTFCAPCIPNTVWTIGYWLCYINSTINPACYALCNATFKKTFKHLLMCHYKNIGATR
Assay: Functional M2-GIRK1/4 activation test: allosteric potency (EC50) and efficiency
Settings: for EC50: Receptor activity EC50, CHO-DUKX-M2-GIRK cells, acetylcholine at EC20, in some cases mean of two or more determinations; for Emax: read-out: Efficiency, boosting of the acetylcholine effect at EC20 acetylcholine concentration; for Emax / Efficiency: CHO-DUKX-M2-GIRK cells; for Efficiency: boosting of the acetylcholine effect at EC20 acetylcholine concentration

Row | Compound | EC50 [nM] | Emax [%] | Efficiency [%]
1 | CC[C@@H](NC(=O)c1cn(-c2ncccc2F)c2nc(N3CC4CC4(O)C3)ccc2c1=O)C(F)(F)F (mixture of isomers) [Example 134, 1-(3-Fluoropyridin-2-yl)-7-[1-hydroxy-3-azabicyclo[3.1.0]hex-3-yl]-4-oxo-N-[(2R)-1,1,1-trifluorobutan-2-yl]-1,4-dihydro-1,8-naphthyridine-3-carboxamide] | 105 | 100 | 
2 | O=C(N[C@H](C1CC1)C(F)(F)F)c1cn(-c2ncccc2F)c2nc(N3CC4CC4(O)C3)ccc2c1=O (mixture of isomers) [Example 135, N-[(1R)-1-Cyclopropyl-2,2,2-trifluoroethyl]-1-(3-fluoropyridin-2-yl)-7-[(1S)-1-hydroxy-3-azabicyclo[3.1.0]hex-3-yl]-4-oxo-1,4-dihydro-1,8-naphthyridine-3-carboxamide] | 97 | 100 | 
3 | O=C(NC(c1ccccc1Cl)C(F)(F)F)c1cn(-c2ncc(F)cc2F)c2nc(N3CCNC3=O)ccc2c1=O (racemic) [Example 147, N-[1-(2-Chlorophenyl)-2,2,2-trifluoroethyl]-1-(3,5-difluoropyridin-2-yl)-4-oxo-7-(2-oxoimidazolidin-1-yl)-1,4-dihydro-1,8-naphthyridine-3-carboxamide] | 55 | 98.5 | 
4 | CC(NC(=O)c1cn(-c2ncc(F)cc2F)c2nc(N3CCNC3=O)ccc2c1=O)C(F)(F)C(F)(F)F (racemic) [Example 161, 1-(3,5-Difluoropyridin-2-yl)-4-oxo-7-(2-oxoimidazolidin-1-yl)-N-[3,3,4,4,4-pentafluorobutan-2-yl]-1,4-dihydro-1,8-naphthyridine-3-carboxamide] | 70 | 100 | 
5 | CCC(NC(=O)c1cn(-c2ncc(F)cc2F)c2nc(N3CCNC3=O)ccc2c1=O)C(F)(F)C(F)(F)F (racemic) [Example 164, 1-(3,5-Difluoropyridin-2-yl)-4-oxo-7-(2-oxoimidazolidin-1-yl)-N-[1,1,1,2,2-pentafluoropentan-3-yl]-1,4-dihydro-1,8-naphthyridine-3-carboxamide] | 14 | 100 | 
6 | CC(C)C(NC(=O)c1cn(-c2ncc(F)cc2F)c2nc(N3CCNC3=O)ccc2c1=O)C(F)(F)F (racemic) [Example 169, 1-(3,5-Difluoropyridin-2-yl)-4-oxo-7-(2-oxoimidazolidin-1-yl)-N-[1,1,1-trifluoro-3-methylbutan-2-yl]-1,4-dihydro-1,8-naphthyridine-3-carboxamide] | 120 | 97.5 | 
7 | O=C(NC(c1ccccc1Cl)C(F)(F)F)c1cn(-c2ncc(F)cc2F)c2nc(N3C[C@@H](O)CC3=O)ccc2c1=O (single isomer, unassigned) [Example 6] | 14 | 95 | 
8 | O=C(NC(c1ccc(F)cc1)C(F)(F)F)c1cn(-c2ncc(F)cc2F)c2nc(N3C[C@@H](O)CC3=O)ccc2c1=O (single isomer, unassigned) [Example 12] | 55 | 100 | 
9 | O=C(NC(c1ccc(F)cc1)C(F)(F)F)c1cn(-c2ncc(F)cc2F)c2nc(N3C[C@@H](O)CC3=O)ccc2c1=O (single isomer, unassigned) [Example 13] | 130 |  | 99.50
10 | CC1CC(=O)N(c2ccc3c(=O)c(C(=O)N[C@H](C4CC4)C(F)(F)F)cn(-c4ncc(F)cc4F)c3n2)C1 (single isomer, unassigned) [Example 29] | 59 |  | 98.00
11 | O=C(N[C@H](C1CC1)C(F)(F)F)c1cn(-c2ncc(F)cc2F)c2nc(N3CC4CC4(O)C3)ccc2c1=O (single isomer, unassigned) [Example 38] | 18 | 98 | 
12 | O=C(N[C@H](C1CC1)C(F)(F)F)c1cn(-c2ncc(F)cc2F)c2nc(N3CC4CC4(O)C3)ccc2c1=O (single isomer, unassigned) [Example 39] | 51 |  | 99.00
13 | CC[C@@H](NC(=O)c1cn(-c2ncc(F)cc2F)c2nc(N3CC4CC4(O)C3)ccc2c1=O)C(F)(F)F (single isomer, unassigned) [Example 44] | 31 | 98.5 | 
14 | CC[C@@H](NC(=O)c1cn(-c2ncc(F)cc2F)c2nc(N3CC4CC4(O)C3)ccc2c1=O)C(F)(F)F (single isomer, unassigned) [Example 45] | 57 |  | 96.00
15 | O=C(NC(C(F)(F)F)C(F)(F)F)c1cn(-c2ncc(F)cc2F)c2nc(N3CC4CC4(O)C3)ccc2c1=O (single isomer, unassigned) [Example 58, 1-(3,5-Difluoropyridin-2-yl)-N-(1,1,1,3,3,3-hexafluoropropan-2-yl)-7-[1-hydroxy-3-azabicyclo[3.1.0]hex-3-yl]-4-oxo-1,4-dihydro-1,8-naphthyridine-3-carboxamide] | 11 | 96 | 
16 | O=C(NC(C(F)(F)F)C(F)(F)F)c1cn(-c2ncc(F)cc2F)c2nc(N3CC4CC4(O)C3)ccc2c1=O (single isomer, unassigned) [Example 59, 1-(3,5-Difluoropyridin-2-yl)-N-(1,1,1,3,3,3-hexafluoropropan-2-yl)-7-[1-hydroxy-3-azabicyclo[3.1.0]hex-3-yl]-4-oxo-1,4-dihydro-1,8-naphthyridine-3-carboxamide] | 23 |  | 99.00

Row | Compound | EC50 [nM] | Emax [%] | Efficiency [%]
17 | CC(NC(=O)c1cn(-c2ncc(F)cc2F)c2nc(N3C[C@@H](O)CC3=O)ccc2c1=O)C(F)(F)C(F)(F)F (single isomer, unassigned) [Example 77] | 260 | 100 | 
18 | CC(NC(=O)c1cn(-c2ncc(F)cc2F)c2nc(N3C[C@@H](O)CC3=O)ccc2c1=O)C(F)(F)C(F)(F)F (single isomer, unassigned) [Example 78] | 44 |  | 91.50
19 | O=C(NC(c1ccccc1Cl)C(F)(F)F)c1cn(-c2ncc(F)cc2F)c2nc(N3C[C@@H](O)[C@H](O)C3)ccc2c1=O (single isomer, unassigned) [Example 85] | 85 |  | 99.00
20 | CC(NC(=O)c1cn(-c2ncc(F)cc2F)c2nc(N3C[C@@H](O)[C@H](O)C3)ccc2c1=O)C(F)(F)C(F)(F)F (single isomer, unassigned) [Example 89] | 275 | 98 | 
21 | CCC(NC(=O)c1cn(-c2ncc(F)cc2F)c2nc(N3C[C@@H](O)CC3=O)ccc2c1=O)C(F)(F)C(F)(F)F (single isomer, unassigned) [Example 94] | 32 |  | 100.00
22 | CCC(NC(=O)c1cn(-c2ncc(F)cc2F)c2nc(N3C[C@@H](O)[C@H](O)C3)ccc2c1=O)C(F)(F)C(F)(F)F (single isomer, unassigned) [Example 96] | 68 | 100 | 
23 | CC1C(=O)N(c2ccc3c(=O)c(C(=O)N[C@@H](C4CC4)C(F)(F)F)cn(-c4ncc(F)cc4F)c3n2)CC1O (single isomer, unassigned) [Example 105] | 98 | 100 | 
24 | CC1C(=O)N(c2ccc3c(=O)c(C(=O)N[C@@H](C4CC4)C(F)(F)F)cn(-c4ncc(F)cc4F)c3n2)CC1O (single isomer, unassigned) [Example 106] | 165 |  | 91.50
25 | CC1C(=O)N(c2ccc3c(=O)c(C(=O)N[C@@H](C4CC4)C(F)(F)F)cn(-c4ncc(F)cc4F)c3n2)CC1O (single isomer, unassigned) [Example 107] | 97 |  | 98.00
26 | CC[C@H](NC(=O)c1cn(-c2ncc(F)cc2F)c2nc(N3CC(O)C(C)C3=O)ccc2c1=O)C(F)(F)F (single isomer, unassigned) [Example 109] | 135 | 96 | 
27 | CC[C@H](NC(=O)c1cn(-c2ncc(F)cc2F)c2nc(N3CC(O)C(C)C3=O)ccc2c1=O)C(F)(F)F (single isomer, unassigned) [Example 110] | 190 |  | 94.50
28 | CC[C@H](NC(=O)c1cn(-c2ncc(F)cc2F)c2nc(N3CC(O)C(C)C3=O)ccc2c1=O)C(F)(F)F (single isomer, unassigned) [Example 111] | 100 |  | 99.00
29 | O=C(N[C@H](C1CC1)C(F)(F)F)c1cn(-c2ncccc2F)c2nc(N3CC4C[C@@]4(O)C3)ccc2c1=O (single isomer, unassigned) [Example 136] | 64 | 97.5 | 
30 | O=C(N[C@H](C1CC1)C(F)(F)F)c1cn(-c2ncccc2F)c2nc(N3CC4C[C@@]4(O)C3)ccc2c1=O (single isomer, unassigned) [Example 137] | 110 |  | 99.00
31 | O=C(NC(c1ccccc1Cl)C(F)(F)F)c1cn(-c2ncc(F)cc2F)c2nc(N3CCNC3=O)ccc2c1=O (single isomer, unassigned) [Example 148, N-[1-(2-Chlorophenyl)-2,2,2-trifluoroethyl]-1-(3,5-difluoropyridin-2-yl)-4-oxo-7-(2-oxoimidazolidin-1-yl)-1,4-dihydro-1,8-naphthyridine-3-carboxamide] | 66 | 100 | 
32 | O=C(NC(c1ccccc1Cl)C(F)(F)F)c1cn(-c2ncc(F)cc2F)c2nc(N3CCNC3=O)ccc2c1=O (single isomer, unassigned) [Example 149, N-[1-(2-Chlorophenyl)-2,2,2-trifluoroethyl]-1-(3,5-difluoropyridin-2-yl)-4-oxo-7-(2-oxoimidazolidin-1-yl)-1,4-dihydro-1,8-naphthyridine-3-carboxamide] | 32 |  | 100.00
